Experimental data from ChEMBL document CHEMBL4428093, “One pot Click chemistry: A three component reaction for the synthesis of 2-mercaptobenzimidazole linked coumarinyl triazoles as anti-tubercular agents” (2016).
≈ marks a conversion by molar mass, not a printed value.

The compounds below were run on Mycobacterium tuberculosis (assay: Antituberculosis activity against Mycobacterium tuberculosis H37Rv after 5 days by MABA method). Details: 120 h.
Assay type: functional

SMILES	MIC [µM]
Cc1cc(C)c2c(Cn3cc(CSc4nc5ccccc5[nH]4)nn3)cc(=O)oc2c1	3.8 (≈ 1.59 µg/mL)
Cc1ccc2c(Cn3cc(CSc4nc5ccccc5[nH]4)nn3)cc(=O)oc2c1	7.7 (≈ 3.11 µg/mL)
NC(=O)c1cnccn1 [PYRAZINAMIDE]	25.3 (≈ 3.11 µg/mL)
O=c1cc(Cn2cc(CSc3nc4ccccc4[nH]3)nn2)c2ccccc2[nH]1	32.2 (≈ 12.5 µg/mL)
CN[C@@H]1[C@H](O[C@H]2[C@H](O[C@H]3[C@H](O)[C@@H](O)[C@H](N=C(N)N)[C@@H](O)[C@@H]3N=C(N)N)O[C@@H](C)[C@]2(O)C=O)O[C@@H](CO)[C@H](O)[C@H]1O [STREPTOMYCIN]	10.7 (≈ 6.22 µg/mL)
Cc1ccc2oc(=O)cc(Cn3cc(CSc4nc5ccccc5[nH]4)nn3)c2c1	7.7 (≈ 3.11 µg/mL)
O=c1cc(Cn2cc(CSc3nc4ccccc4[nH]3)nn2)c2ccc(O)cc2o1	30.8 (≈ 12.5 µg/mL)
O=c1cc(Cn2cc(CSc3nc4ccccc4[nH]3)nn2)c2ccc(Cl)cc2[nH]1	14.8 (≈ 6.26 µg/mL)
O=C(O)c1cn(C2CC2)c2cc(N3CCNCC3)c(F)cc2c1=O [CIPROFLOXACIN]	9.4 (≈ 3.11 µg/mL)
Cc1ccc2c(Cn3cc(CSc4nc5ccccc5[nH]4)nn3)cc(=O)oc2c1C	3.8 (≈ 1.59 µg/mL)
O=c1cc(Cn2cc(CSc3nc4ccccc4[nH]3)nn2)c2ccc3ccccc3c2o1	28.4 (≈ 12.5 µg/mL)
O=c1cc(Cn2cc(CSc3nc4ccccc4[nH]3)nn2)c2ccc(Cl)cc2o1	7.3 (≈ 3.09 µg/mL)
Cc1cccc2c(Cn3cc(CSc4nc5ccccc5[nH]4)nn3)cc(=O)[nH]c12	7.7 (≈ 3.1 µg/mL)
O=c1cc(Cn2cc(CSc3nc4ccccc4[nH]3)nn2)c2cc(Cl)ccc2[nH]1	29.6 (≈ 12.5 µg/mL)
COc1ccc2c(Cn3cc(CSc4nc5ccccc5[nH]4)nn3)cc(=O)oc2c1	59.6 (≈ 25 µg/mL)
O=c1cc(Cn2cc(CSc3nc4ccccc4[nH]3)nn2)c2c(ccc3ccccc32)o1	14.2 (≈ 6.24 µg/mL)
COc1ccc2oc(=O)cc(Cn3cc(CSc4nc5ccccc5[nH]4)nn3)c2c1	29.8 (≈ 12.5 µg/mL)

The compounds below were run on Mycobacterium tuberculosis (assay: Potency index, ratio of streptomycin MIC to compound MIC for Mycobacterium tuberculosis H37Rv). Details: not given.
Assay type: functional

SMILES	Ratio
Cc1cc(C)c2c(Cn3cc(CSc4nc5ccccc5[nH]4)nn3)cc(=O)oc2c1	3
Cc1ccc2c(Cn3cc(CSc4nc5ccccc5[nH]4)nn3)cc(=O)oc2c1C	3
